In patent US5447717A, “Cholesterol-lowering agents” (Merck & Co., Inc., priority 1993, dated 1995):

Legend:
Squalene Synthase = target: T1, Squalene Synthase (Rattus norvegicus, UniProt Q02769); assay: Squalene Synthase Assay (in vitro, rat liver microsomes); assay type: biochemical; conditions: [4-14C]farnesyl pyrophosphate, 30° C., 20 minutes
T1 construct: from tissue; host or cells: rat liver microsomes (male Charles River CD rats, fed 0.1% lovastatin for 4 days)
T1 sequence (Q02769 1-416): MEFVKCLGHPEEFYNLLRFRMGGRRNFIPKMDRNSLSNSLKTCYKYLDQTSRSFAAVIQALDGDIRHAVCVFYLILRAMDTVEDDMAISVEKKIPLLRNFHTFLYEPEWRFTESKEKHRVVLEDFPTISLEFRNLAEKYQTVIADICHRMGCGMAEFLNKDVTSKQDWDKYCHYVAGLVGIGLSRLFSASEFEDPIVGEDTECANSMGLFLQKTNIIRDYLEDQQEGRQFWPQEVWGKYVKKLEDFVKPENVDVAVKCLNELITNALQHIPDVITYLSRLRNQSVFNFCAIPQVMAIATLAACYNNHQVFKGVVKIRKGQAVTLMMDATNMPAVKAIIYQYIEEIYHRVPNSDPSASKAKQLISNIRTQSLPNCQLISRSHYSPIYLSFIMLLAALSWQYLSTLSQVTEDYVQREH
Protocol: The intrinsic squalene synthase inhibitory activity of representative compounds of this invention was measured by the standard ill vitro protocol described below:
Preparation of Rat Liver Microsomes
Male, CHARLES RIVER CD® rats (120 to 150 g) were fed a diet containing 0.1% lovastatin for 4 days. The livers from these rats were homogenized in 5 volumes (mL/g) of ice cold 50 mM HEPES (4-(2-hydroxyethyl)-1-piperazine-ethanesulfonic acid), 5 mM EDTA(ethylenediaminetetraacetic acid) pH 7.5 with a Potter-Elvehjem type tissue grinder. The homogenate was centrifuged twice at 20,000 × g for 15 min. at 4° C., discarding the pellet each time. The supernatant was then centrifuged at 100,000 × g for 1 hr at 4° C. The resulting microsomal pellet was resuspended in a volume of the above homogenizing buffer equal to one-fifth the volume of the original homoSenate. This microsomal preparation has a protein concentration of about 7 mg/mL. The microsomal suspensions were stored in aliquots at -70° C. Squalene synthase activity in these aliquots is stable for a least several months.
Partial Purification of Prenyl Transferase
Prenyl transferase was purified to use in the enzymatic synthesis of radiolabelled farnesyl pyrophosphate. […]

Ras = conditions: Hancock et al.; Casey et al.; Schafer et al.; cited from earlier work

| SMILES | IC50 (Squalene Synthase) | Inhibition of Ras farnesylation in vivo (Ras) |
| --- | --- | --- |
| C=C(CCC12OC3C(=O)OC3(C(=O)O)C(C(=O)O)(O1)C(OC(=O)/C=C/C(C)CC(C)CC)C2O)C(OC(C)=O)C(C)Cc1ccccc1 (stereo not drawn) [Compound 1, IIA-β-Lactone] | 0.4 nM |  |
| CC[C@H](C)C(=O)O[C@H]1CCC=C2C=C[C@H](C)[C@H](CC[C@@H]3C[C@@H](O)CC(=O)O3)[C@H]21 [compactin] |  | Inhibition of Ras farnesylation in vivohas been demonstrated |
| CC[C@H](C)C(=O)O[C@H]1C[C@@H](C)C=C2C=C[C@H](C)[C@H](CC[C@@H]3C[C@@H](O)CC(=O)O3)[C@H]21 [lovastatin] |  | Inhibition of Ras farnesylation in vivohas been demonstrated |
